# Assay results: US7939626B2, “Chemoselective ligation” (The Regents of the University of California, priority 2000, dated 2011)
# Experiments:
# [1] = tested on: Jurkat cells; assay: Cell surface disulfide bond reduction: free sulfhydryl groups detected with iodoacetylbiotin and FITC-avidin; format: cell-based, human; conditions: 1 mM phosphine, 1 hour, relative to cells exposed to iodoacetylbiotin alone, FIG. 9
# Procedure: To satisfy the requirement of chemical orthogonality, both participants in the reaction may not engage functional groups endogenous to cells. Triarylphosphines are mild reducing agents, which raises the possibility of disulfide bond reduction as an undesirable side reaction. We addressed this issue by incubating Jurkat cells with triarylphosphine, an intermediate in the synthesis of 47, and quantifying the appearance of free sulfhydryl groups on the cell surface with iodoacetylbiotin and FITC-avidin (FIG. 9). Following incubation, cells were pelleted washed with PBS, and diluted to a volume of 240 μl. Samples were combined with 60 μl of a solution of iodoacetylbiotin (5 mM in PBS), After incubation in the dark at room temperature for 1.5 hrs, the cells were washed with buffer, stained with FITC-avidin, and analyzed by flow cytometry.
# After 1 hour in the presence of 1 mM triarylphosphine, no detectable increase in free sulfhydryl groups was observed relative to cells exposed to iodoacetylbiotin alone (FIG. 9). In a positive control experiment, Jurkat cells were incubated with the trialkylphosphine TCEP (1 mM, 1 hour, room temperature), a commercial disulfide bond reducing agent. […] Therefore, triarylphosphines are essentially unreactive toward disulfide bonds under these conditions, rendering ligation with azides the predominant pathway for reactivity.
# [2] = tested on: Jurkat cells; assay: Growth of Jurkat cells incubated with ManAz for three days (cell counting); format: cell-based, human; conditions: ManAz at a range of concentrations, ManNAc as negative control, FIG. 1
# Procedure: Jurkat cell cultures. Cell cultures of Jurkat were maintained in RPMI 1640 media (Gibco Laboratories, Grand Island, N.Y.) supplemented with 5% fetal bovine serum (FBS, Hyclone, Logan, Utah), 50 units/mL of penicillin and 50 μg/mL of streptomycin (Mediatech, Hemdon, Va.), in a humidified 5% CO2 atmosphere at 37° C. Cell densities were determined using a Coulter Counter-Z2 (Coulter, Miami, Fla.),
# Treatment of cells with mannosamine derivatives. Cultures of Jurkat cells were seeded at a density of 1.25×10^5 cells/mL into 12-well tissue culture plates in a total volume of 2 mL of culture media. The appropriate amount of each sugar (1, 3, 20, 36, 37) in a solution of PBS was added and the cells were incubated for 3 d. Control wells containing no added sugar were also seeded with cells and incubated.
# (§1) Toxicity was ascertained by incubating Jurkat cells, a human T-cell lymphoma cell line, with ManAz for three days at a range of concentrations, using the natural substrate ManNAc (1) as a negative control. Each experiment was performed in triplicate. The cells were counted to determine whether addition of 20 was inhibiting cell growth.
# [3] = tested on: Jurkat cells; assay: Propidium iodide assay, percentage of viable cells by flow cytometry; format: cell-based, human; conditions: Jurkat cells after 3 days with ManAz, FIG. 2
# Procedure: Flow cytometry. Flow cytometry analysis was performed on a Coulter EPICS® XL-MCL cytometer (Coulter, Miami, Fla.) using a 488 nm argon laser. At least 10^4 viable cells were analyzed from each sample. Dead cells were excluded from the analysis using forward/side scatter gating.
# Propidium iodide assay. After growth in the presence of the appropriate sugars, cells were pelleted (3000×g, 2 min), washed twice with 1 mL avidin staining buffer (0.1% NaN3, 0.1% FBS in PBS, pH 7.4) and diluted to a volume of 300 μL. Immediately prior to flow cytometry analysis, 10 μL of propidium iodide solution (1 mM in PBS) was added to each sample.
# as §1
# [4] = tested on: cell surface; assay: Side-by-side comparison with the cell surface ketone reaction; format: cell-based; conditions: same reagent concentrations
# Excerpt: This may reflect either a faster reaction at the cell surface, or more efficient metabolism of azidosugar 20 as compared to the ketosugar. The azide has a major advantage over the ketone in that its reactivity is unique in a cellular context due its abiotic nature. Ketones, by contrast, abound inside cells in the form of metabolites such as pyruvic acid and oxaloacetate. It should be noted that the modified Staudinger reaction is chemically orthogonal to ketone ligations and should allow tandem modification of cell surfaces with the two chemistries.
# [5] = tested on: Jurkat cells; assay: Competition with ManLev metabolism: cell surface ketone detection with biotin hydrazide and FITC-avidin, flow cytometry; format: cell-based, human; conditions: 3 days, increasing concentrations of acetylated ManAz (Ac4MA) with acetylated ManLev (Ac4ML), FIG. 3
# [6] = tested on: Jurkat cells; assay: Cell surface azide expression: reaction with biotinylated phosphine, FITC-avidin staining, flow cytometry; format: cell-based, human
# [7] = tested on: HeLa cells; assay: Cell surface azide expression and growth after the modified Staudinger reaction in HeLa cells
molecule,measurement,setting,value
O=C(O)CCP(CCC(=O)O)CCC(=O)O [TCEP],free sulfhydryl groups on the cell surface,[1],dramatic increase in free cell-surface sulfhydryl groups
"[N-]=[N+]=NCC(=O)N[C@@H]1C(O)O[C@H](CO)[C@@H](O)[C@@H]1O (stereo partly drawn) [compound 20, N-azidoacetylmannosamine]",number of cells observed after 3 days of growth,[2],a decrease in the number of cells observed after 3 days of growth in a dose-dependent fashion
same,percentage of viable cells,[3],No significant change in the percentage of viable cells
same,fluorescence of azidosugar metabolism plus phosphine reaction versus ketosugar metabolism plus hydrazide reaction,[4],two-fold higher fluorescence
"CC(=O)OC[C@H]1OC(OC(C)=O)[C@@H](NC(=O)CN=[N+]=[N-])[C@@H](OC(C)=O)[C@@H]1OC(C)=O (stereo partly drawn) [compound 36, 1,3,4,6-Tetra-O-acetyl-N-azidoacetylmannosamine]",fluorescence from ketone labeling (competition with acetylated ManLev),[5],proportionately decreasing fluorescence
same,biotin moieties accumulated on the cell surface,"[6]; 40 μM acetylated 3 for 3 days, then 2 mM compound 5 for 3 hours",approximately 4.5 million
same,biotin moieties accumulated on the cell surface,"[6]; 40 AM acetylated 20 for 3 days, then 2 mM compound 47 for 3 hours",approximately 4.5 million
same,biotin moieties accumulated on the cell surface,"[6]; acetylated 20 for 3 days, then 1 mM compound 47 for 1 hour, calibrated with biotinylated beads","approximately 850,000 biotin moieties"
same,"fluorescence (biotin moieties on the cell surface, FITC-avidin)","[6]; acetylated azidosugar 20 μM for 3 days, then compound 47 (1 mM in PBS, pH 7.4) 1 hr at room temperature, versus untreated cells, FIG. 5",dramatic increase in fluorescence
same,growth rate after the modified Staudinger reaction,[7]; HeLa cells cultured for an additional 3 days after the reaction,no change in growth rate
same,fluorescence after azidosugar incubation and phosphine reaction,"[7]; HeLa cells, compared with the Jurkat result",responded similarly
tunicamycin [reference compound],fluorescence signal with tunicamycin added during azidosugar incubation,[6]; tunicamycin present during incubation with the azidosugar,reduced
